Measured values: patent US11161856B2 (H. Lundbeck A/S, priority 2017, dated 2021)

What was measured:
Type in all cases: biochemical
MAGL = target: T1, MAGL (Homo sapiens, UniProt Q99685); experiment: In vitro competitive activity-based protein profiling (FP-Rh or HT-01 probe, gel-based); set-up: IC50 MGLL PC3 (Human, μM) / IC50 MGLL PFC (Human, μM): scale not given here; conditions: for % Inh MGLL PFC (Human, μM): concentration not given (μM); for IC50 MGLL PC3 (Human, μM): PC3 cell proteome
T1 construct: Proteomes (human prefrontal cortex or cell membrane fractions); from tissue
T1 sequence (Q99685 1-303): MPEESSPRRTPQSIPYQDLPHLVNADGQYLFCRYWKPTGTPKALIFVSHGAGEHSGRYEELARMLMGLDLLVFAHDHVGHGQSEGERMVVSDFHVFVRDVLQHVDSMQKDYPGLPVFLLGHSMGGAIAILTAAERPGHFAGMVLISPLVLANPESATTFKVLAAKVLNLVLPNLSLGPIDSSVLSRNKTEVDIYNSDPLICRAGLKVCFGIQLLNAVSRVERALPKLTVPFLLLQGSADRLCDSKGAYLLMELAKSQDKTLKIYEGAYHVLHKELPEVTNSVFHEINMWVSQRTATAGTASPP
Method: (§1) In Vitro Competitive Activity-Based Protein Profiling.
(§2) Proteomes (human prefrontal cortex or cell membrane fractions) (50 μL, 1.0 mg/mL total protein concentration) were preincubated with varying concentrations of inhibitors at 37° C. After 30 min, FP-Rh or HT-01 (1.0 μL, 50 μM in DMSO) was added and the mixture was incubated for another 30 min at room temperature. Reactions were quenched with SDS loading buffer (15 μL-4×) and run on SDS-PAGE.

ABHD6 = target: T2, ABHD6 (Mus musculus, UniProt Q8R2Y0); experiment: In vitro competitive activity-based protein profiling, mouse brain proteome (ABHD6); conditions: mouse brain proteome; concentration not given (μM)
T2 construct: Brain; from tissue; host or cells: mouse brain proteome
T2 sequence (Q8R2Y0 1-336): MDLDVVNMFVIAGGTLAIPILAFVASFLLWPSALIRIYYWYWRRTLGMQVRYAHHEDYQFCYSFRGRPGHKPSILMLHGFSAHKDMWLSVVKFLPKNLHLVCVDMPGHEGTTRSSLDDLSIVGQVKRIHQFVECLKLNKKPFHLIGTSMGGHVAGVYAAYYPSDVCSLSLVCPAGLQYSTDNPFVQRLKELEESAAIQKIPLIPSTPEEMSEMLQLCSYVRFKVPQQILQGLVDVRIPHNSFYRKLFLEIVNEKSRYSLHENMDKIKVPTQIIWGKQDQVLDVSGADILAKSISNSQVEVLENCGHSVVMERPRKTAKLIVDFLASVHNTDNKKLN
Method: [The source words this procedure for another target and reports this target under the same test.] as §1, §2

MGLL = target: T3, MGLL (Mus musculus, UniProt O35678); experiment: In vitro competitive activity-based protein profiling, mouse brain proteome (MGLL); set-up: IC50 MGLL Brain (Mouse, μM): scale not given here; conditions: for % Inh MGLL Brain (Mouse, μM): concentration not given (μM)
T3 construct: Brain; from tissue; host or cells: mouse brain proteome
T3 sequence (O35678 1-303): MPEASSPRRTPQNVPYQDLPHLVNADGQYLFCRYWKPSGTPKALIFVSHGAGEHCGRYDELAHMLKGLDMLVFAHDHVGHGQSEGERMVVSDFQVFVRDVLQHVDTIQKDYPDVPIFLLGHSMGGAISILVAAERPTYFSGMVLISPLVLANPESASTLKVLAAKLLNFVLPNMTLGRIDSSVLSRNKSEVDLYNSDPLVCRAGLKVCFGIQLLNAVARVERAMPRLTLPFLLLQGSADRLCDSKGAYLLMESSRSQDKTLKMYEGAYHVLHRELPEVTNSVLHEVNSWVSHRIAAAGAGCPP

[1] = prefrontal cortex (PFC) proteome

Question: With O=C(O)C1CCN(Cc2cc(CN3CCC4(CC3)CCN(C(=O)OC(C(F)(F)F)C(F)(F)F)C4)ccc2Cl)CC1 [Example 224, l-(2-Chloro-5-((2-(((1,1,1,3,3,3-hexafluoropropan-2-yl)oxy)carbonyl)-2,8-diazaspiro[4.5]decan-8-yl)methyl)benzyl)piperidine-4-carboxylic acid] as the compound, how does the “% Inh MGLL PFC (Human, μM)” value (MAGL; [1]) read?
Answer: # (# is ≤25%)

Question: And the “% Inh ABHD6 Brain (Mouse, μM)” value (ABHD6)?
Answer: # (# is ≤25%)

Question: What about the “% Inh MGLL Brain (Mouse, μM)” value (MGLL) of the same compound?
Answer: ## (## is between 25 and 75%)

Question: With O=C(O)CN1CC2CC1CN2c1cc(CN2CCC3(CCN(C(=O)OC(C(F)(F)F)C(F)(F)F)CC3)C2)cc(C(F)(F)F)c1 (stereo not drawn) [Example 125, 2-(5-{3-[(8-{[(1,1,1,3,3,3-Hexafluoropropan-2-yl)oxy]carbonvl}-2,8-diazaspiro[4.5]decan-2-yl)methyl]-5-(trifluoromethyl)phenyl}-2,5-diazabicyclo[2.2.1]heptan-2-yl)acetic acid] as the compound, how does the “% Inh MGLL PFC (Human, μM)” value (MAGL; [1]) read?
Answer: ### (### is ≥75%)

Question: What about the “% Inh ABHD6 Brain (Mouse, μM)” value (ABHD6) of the same compound?
Answer: ### (### is ≥75%)

Question: What about the “% Inh MGLL Brain (Mouse, μM)” value (MGLL) of the same compound?
Answer: ### (### is ≥75%)

Question: For O=C(O)C1CCN(Cc2cc(CN3CCC4(CC3)CCN(C(=O)OC(C(F)(F)F)C(F)(F)F)C4)cc(C(F)(F)F)c2)CC1 [Example 223, l-(3-((2-(((1,1,1,3,3,3-Hexafluoropropan-2-yl)oxy)carbonyl)-2,8-diazaspiro[4.5]decan-8-yl)methyl)-5-(trifluoromethyl)benzyl) piperidine-4-carboxylic acid], which “% Inh MGLL PFC (Human, μM)” value (MAGL; [1]) is on record?
Answer: ## (## is between 25 and 75%)

Question: And the “% Inh ABHD6 Brain (Mouse, μM)” value (ABHD6)?
Answer: # (# is ≤25%)

Question: And the “% Inh MGLL Brain (Mouse, μM)” value (MGLL)?
Answer: # (# is ≤25%)

Question: O=C(O)C1COCCN1c1cc(C(F)(F)F)ccc1CN1CC2(CCN(C(=O)OC(C(F)(F)F)C(F)(F)F)CC2)C1 (stereo not drawn) [Example 113, 4-(2-((7-(((1,1,1,3,3,3-Hexafluoropropan-2-yl)oxy)carbonyl)-2,7-diazaspiro[3.5]nonan-2-yl)methyl)-5-(trifluoromethyl)phenyl)moiph oline-3-carboxylic acid] was tested. Which “% Inh MGLL PFC (Human, μM)” value (MAGL; [1]) did it give?
Answer: # (# is ≤25%)

Question: What about the “% Inh ABHD6 Brain (Mouse, μM)” value (ABHD6) of the same compound?
Answer: # (# is ≤25%)

Question: And the “% Inh MGLL Brain (Mouse, μM)” value (MGLL)?
Answer: ## (## is between 25 and 75%)

Question: With O=C(O)C1CCN(c2cc(C(F)(F)F)ccc2CN2CC3(CCN(C(=O)OC(C(F)(F)F)C(F)(F)F)CC3)C2)CC1 [Example 102, l-(2-((7-(((U,l,3,3,3-Hexafluoropropan-2-yl)oxy)carbonyl)-2,7-diazaspiro[3.5]nonan-2-yl)methyl)-5-(trifluoromethyl)phenyl)piperi-dine-4-carboxylic acid] as the compound, how does the “% Inh MGLL PFC (Human, μM)” value (MAGL; [1]) read?
Answer: ### (### is ≥75%)

Question: What about the “% Inh ABHD6 Brain (Mouse, μM)” value (ABHD6) of the same compound?
Answer: ### (### is ≥75%)

Question: And the “% Inh MGLL Brain (Mouse, μM)” value (MGLL)?
Answer: ### (### is ≥75%)

Question: O=C(OC(C(F)(F)F)C(F)(F)F)N1CCC2(CCCN2C(=O)c2ccc(Cl)cc2)CC1 [Example 13, 1,1,1,3,3,3-Hexafluoropropan-2-yl 1-(4-chlorobenzoyl)-1,8-diazaspiro[4.5]decane-8-carboxylate] was tested. Which “% Inh MGLL PFC (Human, μM)” value (MAGL; [1]) did it give?
Answer: ### (### is ≥75%)

Question: What about the “% Inh ABHD6 Brain (Mouse, μM)” value (ABHD6) of the same compound?
Answer: ### (### is ≥75%)

Question: And the “IC50 MGLL Brain (Mouse, μM)” value (MGLL)?
Answer: * * *

Question: What about the “% Inh MGLL Brain (Mouse, μM)” value (MGLL) of the same compound?
Answer: ### (### is ≥75%)

Question: What does the source list for CN(Cc1ccc(C(F)(F)F)cc1N1CCC(C(=O)O)CC1)C1(C)CCN(C(=O)OC(C(F)(F)F)C(F)(F)F)CC1 [Example 14, 1-(2-(((1-(((1,1,1,3,3,3-Hexafluoropropan-2-yl)oxy)carbonyl)-4-methylpiperidin-4-yl)(methyl)amino)methyl)-5-(trifluoromethyl)phenyl)piperidine-4-carboxylic acid]?
Answer: IC50 MGLL PC3 (Human, μM) (MAGL): * * *; % Inh MGLL PFC (Human, μM) (MAGL; [1]): ### (### is ≥75%); % Inh ABHD6 Brain (Mouse, μM) (ABHD6): ### (### is ≥75%); % Inh MGLL Brain (Mouse, μM) (MGLL): ### (### is ≥75%)

Question: With O=C(O)C1CCCCN1c1cc(CN2CC3(CCN(C(=O)OC(C(F)(F)F)C(F)(F)F)CC3)C2)cc(C(F)(F)F)c1 (stereo not drawn) [Example 120, l-(3-((7-(((1,1,1,3,3,3-Hexafluoropropan-2-yl)oxy)carbonyl)-2,7-diazaspiro[3,5]nonan-2-yl)methyl)-5-(trifluoromethyl)phenvl)piperidine-2-carboxylic acid] as the compound, how does the “% Inh MGLL PFC (Human, μM)” value (MAGL; [1]) read?
Answer: ### (### is ≥75%)

Question: What about the “% Inh ABHD6 Brain (Mouse, μM)” value (ABHD6) of the same compound?
Answer: ### (### is ≥75%)

Question: And the “% Inh MGLL Brain (Mouse, μM)” value (MGLL)?
Answer: ### (### is ≥75%)

Question: With O=C(O)CN1CC2CC1CN2c1cc(C(F)(F)F)ccc1CN1CCCC12CCN(C(=O)OC(C(F)(F)F)C(F)(F)F)CC2 (stereo not drawn) [Example 6] as the compound, how does the “IC50 MGLL PC3 (Human, μM)” value (MAGL) read?
Answer: * * *

Question: What about the “IC50 MGLL PFC (Human, μM)” value (MAGL; [1]) of the same compound?
Answer: * * *

Question: With CN(Cc1ccc(C(F)(F)F)cc1N1CCC(C(=O)O)C1)C1(C)CCN(C(=O)OC(C(F)(F)F)C(F)(F)F)CC1 (stereo not drawn) [Example 118, l-(2-(((1-(((1,1,1,3,3,3-Hexailuoropropan-2-yl)oxy)carbonyl)-4-methylpiperidin-4-yl)(methyl)amino)methyl)-5-(trifluoromethyl)phenyl)pyrrolidine-3-carboxylic acid] as the compound, how does the “% Inh MGLL PFC (Human, μM)” value (MAGL; [1]) read?
Answer: ### (### is ≥75%)

Question: What about the “% Inh ABHD6 Brain (Mouse, μM)” value (ABHD6) of the same compound?
Answer: ## (## is between 25 and 75%)

Question: Which results are given for CC(=O)N1CC2(CCN(c3cc(Cl)ccc3CN3CCN(C(=O)OC(C(F)(F)F)C(F)(F)F)CC3)CC2)C1 [Example 213, 1,1,1,3,3,3-Hexafluoropropan-2-yl 4-(2-(2-acetyl-2,7-diazaspiro[3.5]nonan-7-yl)-4-chlorobenzyl)piperazine-1-carboxylate]?
Answer: % Inh ABHD6 Brain (Mouse, μM) (ABHD6): ## (## is between 25 and 75%); % Inh MGLL Brain (Mouse, μM) (MGLL): ### (### is ≥75%)

Question: How did the “% Inh ABHD6 Brain (Mouse, μM)” value (ABHD6) turn out when CC(=O)N1CCN(c2cccc(Cl)c2CN2CC3(CCN(C(=O)OC(C(F)(F)F)C(F)(F)F)CC3)C2)CC1 [Example 49, 1,1,1,3,3,3-Hexafluoropropan-2-yl 2-(2-(4-acetylpiperazin-1-yl)-6-chlorobenzyl)-2,7-diazaspiro[3.5]nonane-7-carboxylate] was run?
Answer: ### (### is ≥75%)

Question: And the “% Inh MGLL Brain (Mouse, μM)” value (MGLL)?
Answer: ### (### is ≥75%)

Question: For O=C(OC(C(F)(F)F)C(F)(F)F)N1CC2(CCN(Cc3ccc(C(F)(F)F)cc3)CC2)C1 [Example 56, 1,1,1,3,3,3-Hexafluoropropan-2-yl 7-(4-(trifluoromethyl)benzyl)-2,7-diazaspiro[3.5]nonane-2-carboxylate], which “% Inh ABHD6 Brain (Mouse, μM)” value (ABHD6) is on record?
Answer: ### (### is ≥75%)

Question: And the “% Inh MGLL Brain (Mouse, μM)” value (MGLL)?
Answer: ## (## is between 25 and 75%)

Question: Which “% Inh ABHD6 Brain (Mouse, μM)” value (ABHD6) does the source give for CN1CC2(CCN(c3cc(Cl)ccc3CN3CCN(C(=O)OC(C(F)(F)F)C(F)(F)F)CC3)C2)C1 [Example 169, 1,1,1,3,3,3-Hexafluoropropan-2-yl 4-(4-chloro-2-(2-methyl-2,6-diazaspiro[3.4]octan-6-yl)benzyl)piperazine-1-carboxylate] here?
Answer: # (# is ≤25%)

Question: What about the “% Inh MGLL Brain (Mouse, μM)” value (MGLL) of the same compound?
Answer: ### (### is ≥75%)

Question: Which results are given for O=C(OC(C(F)(F)F)C(F)(F)F)N1CC2(CCN(Cc3ccc(N4CCOCC4)cc3Cl)CC2)C1 [Example 70, 1,1,1,3,3,3-Hexafluoropropan-2-yl 7-(2-chloro-4-morpholinobenzyl)-2,7-diazaspiro[3.5]nonane-2-carboxylate]?
Answer: % Inh ABHD6 Brain (Mouse, μM) (ABHD6): ### (### is ≥75%); % Inh MGLL Brain (Mouse, μM) (MGLL): ### (### is ≥75%)

Question: With O=C(O)C1CCN(c2ccc(CN3CC4(CCN(C(=O)OC(C(F)(F)F)C(F)(F)F)CC4)C3)cc2)CC1 [Example 74, 1-(4-((7-(((1,1,1,3,3,3-Hexafluoropropan-2-yl)oxy)carbonyl)-2,7-diazaspiro[3.5]nonan-2-yl)methyl)phenyl)piperidine-4-carboxylic acid] as the compound, how does the “% Inh ABHD6 Brain (Mouse, μM)” value (ABHD6) read?
Answer: ### (### is ≥75%)

Question: And the “% Inh MGLL Brain (Mouse, μM)” value (MGLL)?
Answer: # (# is ≤25%)
